This is an account of results in patent US8883758B2, “3,5-disubstituted and 3,5,7-trisubstituted-3H-oxazolo and 3H-thiazolo[4,5-d]pyrimidin-2-one compounds and prodrugs thereof” (Anadys Pharmaceuticals, Inc., priority 2004, dated 2014).

Structures are written as SMILES.

The subject of the data set is fresh cynomolgus monkey hepatocytes. Description: Metabolism of Formula I prodrugs to 6-oxy metabolites in fresh cynomolgus monkey hepatocytes (LC/MS/MS). The format is in vitro ADME. As to the method: A study was undertaken to evaluate the metabolic stability of Formula I compounds 14, 15, 13, 114, 30, 103, 67, 65, and 76 in the presence of fresh cynomolgus monkey hepatocytes and monitor the formation of 6-oxy metabolites, i.e., Formula II compounds and other compounds of the invention. For comparison, the metabolic stability of famciclovir was also assessed.
Fresh cynomolgus monkey hepatocyte suspension (Lot #: Cy141) was purchased from CellzDirect (Tucson, Ariz.). Hepatocyte Incubation Medium (serum-free, sterile) was purchased from In Vitro Technologies (Baltimore, Md.).
The cynomolgus monkey hepatocyte suspension was prepared from fresh cynomolgus monkey hepatocytes in hepatocyte incubation medium at the concentration of 1.25 million cells/mL. The final incubation concentration (after test article addition) was 1.0 million cells/mL.
Existing 100 mM stock solutions in DMSO were used. The concentrations of the test articles were checked using UV-vis microplate reader. Correction coefficients were determined using the absorbance of a freshly prepared DMSO stock of 122.
Reaction suspensions were prepared in removable 96-well tubes, each containing 320 μL of fresh cynomolgus monkey hepatocyte suspension at the density of 1.25 million cells per mL and 40 μL of hepatocyte incubation medium. The above mixtures were pre-incubated open at 37° C., 95% humidity and 5% CO2 for 30 minutes. Reactions were initiated by the addition of 40 μL of test article at 10× concentration to each tube to achieve the final concentrations of 50 μM for the test article(s) and 1 million/mL cell density. The reaction suspension in each tube was mixed by inverting the tube several times. Aliquots of 50 μL from each reaction suspension were distributed into six additional removable 96-well tubes (one tube per time point taken at 15, 30, 45, 60, 90, and 120 minutes). The open tubes were incubated at 37° C. under 95% humidity and 5% CO2.
At predetermined time points, reactions were terminated by the addition of 150 μL of the stop solution to each tube containing 50 μL of the reaction suspension. The composition of the stop solution was the following: 15 mL of acetonitrile (containing 1 μg/mL nebularine as an internal standard and 0.1% formic acid) combined with 1 mL water.
The calibration curves were prepared in the following way. To 80 μL of cell suspension (at the cell density of 1.25 million/mL) 10 μL of hepatocyte incubation medium and 10 μL of the appropriate concentration of the compound in hepatocyte incubation medium were added Immediately following the compound addition, 300 μL of the stop solution (see above) was added.
All quenched samples were kept on wet ice until they were processed for analysis. Then they were mixed using a bench top Multi-Tube Vortexer (VWR Scientific Products) for approximately 30 seconds, and centrifuged at 4,000 rpm (3,220 rcf) for 10 minutes at 4° C. Clear supernatant (100 μl) was transferred into a clean deep well 96-well plate, evaporated to dryness under nitrogen, reconstituted in 100 μL of 90:10 water:acetonitrile, and analyzed for the parent form and metabolites of the test article using an appropriate LC/MS/MS method.
The compounds were quantified on an API3000 LC/MS/MS instrument in the ESI-Positive MRM (multiple reaction monitoring) mode.
On to `Nc1ncc2sc(=O)n([C@@H]3O[C@H](CO)C[C@H]3O)c2n1` [Compound 13, 5-Amino-3-(3′-deoxy-β-D-ribofuranosyl)-3H-thiazolo[4,5-d]pyrimidin-2-one], for which the “Metabolism to the corresponding 6-oxy metabolite” value (from here on “Metabolism”) is reported as “metabolized to yield the corresponding 6-oxy metabolites”.

As for `CC(=O)OC[C@@H]1C[C@@H](OC(C)=O)[C@H](n2c(=O)sc3cnc(N)nc32)O1` [Compound 14, 5-Amino-3-(2′,5′-di-O-acetyl-3′-deoxy-β-D-ribofuranosyl)-3H-thiazolo[4,5-d]pyrimidin-2-one], the “Metabolism” value was “metabolized to yield the corresponding 6-oxy metabolites”.

Regarding `CC(=O)O[C@@H]1C[C@@H](CO)O[C@H]1n1c(=O)sc2cnc(N)nc21` [Compound 15, 5-Amino-3-(2′-O-acetyl-3′-deoxy-β-D-ribofuranosyl)-3H-thiazolo[4,5-d]pyrimidin-2-one], the “Metabolism” value is “metabolized to yield the corresponding 6-oxy metabolites”.

Take `C[C@@]1(O)[C@@H](CO)O[C@@H](n2c(=O)sc3cnc(N)nc32)[C@@H]1O` [Compound 30, 5-Amino-3-(3′-methyl-β-D-ribofuransyl)-3H-thiazolo[4,5-d]pyrimidin-2-one]: the “Metabolism” value is reported as “metabolized to yield the corresponding 6-oxy metabolites”.

Take `Nc1ncc2sc(=O)n(C3O[C@H](CO)[C@@H](CO)[C@H]3O)c2n1` (stereo partly drawn) [Compound 65, (3′S)-5-Amino-3-(3′-deoxy-3′-hydroxymethyl-β-D-ribofuranosyl)-3H-thiazolo[4,5-d]pyrimidin-2-one]: the “Metabolism” value was “metabolized to yield the corresponding 6-oxy metabolites”.

For `CC(=O)OCC[C@H]1O[C@@H](n2c(=O)sc3cnc(N)nc32)[C@H](OC(C)=O)[C@@H]1OC(C)=O` [Compound 67, 5-Amino-3-(5′-O-acetoxymethyl-2′,3′-di-O-acetyl-5′-deoxy-β-D-ribofuranosyl)-3H-thiazolo[4,5-d]pyrimidin-2-one], the “Metabolism” value is “metabolized to yield the corresponding 6-oxy metabolites”.

In the case of `C=C1[C@@H](O)[C@H](n2c(=O)sc3cnc(N)nc32)O[C@@H]1CO` [Compound 76, 5-Amino-3-(3′-deoxy-3′-methylidene-β-D-ribofuranosyl)-3H-thiazolo[4,5-d]pyrimidin-2-one], the “Metabolism” value is “metabolized to yield the corresponding 6-oxy metabolites”.

Take `CC(=O)OC[C@H]1O[C@@H](n2c(=O)sc3cnc(N)nc32)[C@H](OC(C)=O)[C@@]1(C)OC(C)=O` [Compound 103, 5-Amino-3-(3′-methyl, 2′,3′,5′-tri-O-acetyl-β-D-xylofuranosyl)-3H-thiazolo[4,5-d]pyrimidin-2-one]: the “Metabolism” value is “metabolized to yield the corresponding 6-oxy metabolites”.

Turning to `CC(=O)OC[C@H]1O[C@@H](n2c(=O)sc3cnc(N)nc32)[C@H](OC(C)=O)[C@H]1OC(C)=O` [Compound 114, 5-Amino-3-(2′,3′,5′-tri-O-acetyl-β-D-xylofuranosyl)-3H-thiazolo[4,5-d]pyrimidin-2-one], the “Metabolism” value was “metabolized to yield the corresponding 6-oxy metabolites”.

For `CC(=O)OCC(CCn1cnc2cnc(N)nc21)COC(C)=O` [Famciclovir, reference compound], the “Metabolism” value is “metabolized to yield the corresponding 6-oxy metabolites”.
